Assay results: patent US12637499B2, “Adrenomedullin analog, method for producing the same, and pharmaceutical use thereof” (priority 2020, dated 2026)
Like-named read-outs stand apart in the source and are kept apart here. Where a SMILES comes first, the peptide text is derived from it. Bridges are numbered along the chain shown (N, C = ends).

Experiments:
[1] = 50 nmol/kg subcutaneous, Experiment VI
Procedure: (§1) Eight-week-old male Wistar rats were purchased from Charles River Laboratories Japan, Inc. The rats were grown with normal feeds in the absence of specific pathogens under cycles of a 12-hour light period and a 12-hour dark period. […] To determine plasma AM concentrations, 50 nmol/kg of AM or an AM analog was subcutaneously administered. A peripheral blood sample was collected from the tail vein into a test tube (containing 21 μg of aprotinin and 0.3 mg of EDTA-2Na) at predetermined times (0, 15, 30, 60, and 120 minutes after administration). The test tube was centrifuged at 1,700×g to afford plasma.

in vivo [2] = details: male, Wistar, rat, sc, 50 nmol/kg
Procedure: as §1

in vitro [3] = assay: in vitro
Procedure: After the lapse of a predetermined time, a 30-μl portion was taken out of the reaction solution, transferred into 170 μl of 0.1% aqueous solution of trifluoroacetic acid (TFA), and stored at −80° C. until analysis.
Quantitative analysis was performed for AM contained in the thus-obtained samples of a reaction mixture with serum or plasma by using specific fluoroimmunoassay (Tosoh Corporation) with two antibodies differing in their recognition sites. […] In the figure, the abscissa represents reaction time (min), and the ordinate represents concentration of AM (UM).
In the figure, the abscissa represents reaction time (min), and the ordinate represents concentration of AM or an AM analog (μM).
In the figure, the abscissa represents the type of AM or an AM analog, and the ordinate represents residual rates of AM or an AM analog (%).

in vitro [4] = details: Experiment VIII; 10^−7 M, 37° C.; 4 hours after the beginning of reaction
Procedure: The stabilities of the AM analog peptides in serum were evaluated with the same procedure as in Experiment I except the following procedure. […] A reaction mixture containing 4 μL of phosphate buffer, 20 μL of human serum (Sigma-Aldrich Co. LLC, USA), and 14 μL of water was prepared. To the reaction mixture, 2 μL of AM or an AM analog peptide (2×10^−6 M, final concentration: 10^−7 M) was added, and reaction was initiated at 37° C. The reaction was terminated by addition of 160 μL of ELISA buffer to the reaction mixture 0, 1, or 4 hours after the beginning of reaction. […] In the figure, the abscissa represents reaction time (hr), and the ordinate represents concentration in serum of AM or an AM analog (%) represented as relative values to concentration of AM or an AM analog at the beginning of reaction (i.e., 0 hours after the beginning of reaction).

in vivo [5] = assay: in vivo
Procedure: Seven-week-old male Wistar rats were prepared, and grown with normal feeds. To determine plasma AM concentrations, 50 nmol/kg of AM or an AM analog was subcutaneously administered. A peripheral blood sample was collected from the tail vein into a Kantan tube® (containing heparin Na, Eiken Chemical Co., Ltd., Tochigi, Japan) at predetermined times (0, 15, 30, 60, and 120 minutes after administration). The tube was centrifuged at 2,000×g. Plasma was collected from the tube, and transferred into a test tube (containing 21 μg of aprotinin and 0.3 mg of EDTA-2Na) and stored. […] In the figure, the abscissa represents elapsed time after subcutaneous administration (hr), and the ordinate represents concentration in plasma of AM or an AM analog (pM). In addition, maximum concentrations in blood (Cmax) of AM or the AM analogs in rat plasma after subcutaneous administration were calculated.

[6] = biological target: T1, AM type 1 receptor (AMI receptor) (Homo sapiens, UniProt O60895+Q16602); assay: Intracellular cAMP production in HEK293 cells stably expressing AM type 1 receptor (Experiments V and IX); format: cell-based
T1 construct: expressed in transfected cells; medium contains hygromycin B and Geneticin
T1 sequence (Q16602 23-461): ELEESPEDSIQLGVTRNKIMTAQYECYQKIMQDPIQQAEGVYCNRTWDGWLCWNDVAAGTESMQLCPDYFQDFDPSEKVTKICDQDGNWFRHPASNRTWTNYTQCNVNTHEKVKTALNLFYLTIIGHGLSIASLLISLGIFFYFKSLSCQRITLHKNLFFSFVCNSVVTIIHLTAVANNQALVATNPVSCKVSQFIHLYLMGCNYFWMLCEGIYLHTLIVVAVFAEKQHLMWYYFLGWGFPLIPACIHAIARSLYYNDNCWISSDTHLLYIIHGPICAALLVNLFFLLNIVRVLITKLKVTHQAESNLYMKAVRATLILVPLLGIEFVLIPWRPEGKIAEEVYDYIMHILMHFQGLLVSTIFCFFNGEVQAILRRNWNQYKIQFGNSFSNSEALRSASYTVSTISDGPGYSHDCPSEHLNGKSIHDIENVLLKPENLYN
T1 sequence (O60895 43-175): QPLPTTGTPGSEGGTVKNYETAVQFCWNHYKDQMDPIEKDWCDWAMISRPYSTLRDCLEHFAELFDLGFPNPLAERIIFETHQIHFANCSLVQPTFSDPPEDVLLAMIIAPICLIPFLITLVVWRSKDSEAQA
Description: The adrenomedullin activity exerted by AM, shown above with examples, will be exerted via increased concentration of intracellular cAMP in normal cases. Thus, the increased concentration of intracellular cAMP can be considered as an index of the adrenomedullin activity of the compound according to the aspect. In each aspect of the invention, the effect of increasing concentration of intracellular cAMP can be evaluated, for example, by adding a target compound to a cultured cell line (HEK293 cell line) caused to stably express an AM type 1 receptor (AMI receptor) and measuring the amount of intracellular cAMP produced.
The physiological effect of AM is known to be exerted via increase in the concentration of intracellular cAMP (see Kitamura K et al., Biochem Biophys Res Commun, 30 Apr. 1993, Volume 192, Issue 2, pp. 553-560). Accordingly, each AM analog was added to a cultured cell line (HEK293 cell line) caused to stably express an AM type 1 receptor (AMI receptor), and the amount of intracellular cAMP produced was measured. HEK293 cells were cultured in Dulbecco's modified Eagle's medium (with 10% fetal bovine serum, 100 U/ml penicillin G, […] streptomycin, 0.25 mg/ml amphotericin B, […] hygromycin B, and […] Geneticin) in a fibronectin-coated 24-well plate (Thermo Fisher Scientific) (under 37° C., humidified, 5% CO2 conditions). After culturing for 3 days, 90%-confluent cells with accumulation of intracellular cAMP stimulated were subjected to experiment. The medium was exchanged with Hanks's balanced salt solution containing 20 mM 4-(2-hydroxyethyl)-1-piperazineethanesulfonic acid and 0.1% bovine serum albumin, AM or an AM analog was added to the cells in the presence of 0.5 mM isobutylmethylxanthine (IBMX), and the cells were incubated at 37° C. for 15 minutes. The reaction was terminated by addition of cell lysis buffer. Then, the amount of intracellular cAMP produced in the HEK293 cells of each well was measured using an ELISA kit for cAMP measurement (GE Healthcare Japan Corp., #RPN2251). […] In the figure, the abscissa represents logarithms of concentration of AM or an AM analog added (M), and the ordinate represents amounts of intracellular cAMP produced in HEK293 cells stably expressing an AMI receptor (fmol/well).
In the figure, the abscissa represents logarithms of concentration of AM or an AM analog added (M), and the ordinate represents amounts of intracellular cAMP produced in HEK293 cells stably expressing an AMI receptor (fmol/ml).

Structure (SMILES) | detection in rat plasma after subcutaneous administration [1] | AUC (in vivo [2]; in vivo) | Cmax (in vivo [2]; plasma) | half-life (in vivo [2]; plasma) | change in amount with the lapse of reaction time in reaction mixture with serum (in vitro [3]; Experiment IV, up to 240 minutes) | remaining at 4 h (in vitro [3]; serum, pH 7.1) | stability in reaction mixture with human serum (in vitro [4]) | detection in rat plasma after subcutaneous administration (in vivo [5]; 50 nmol/kg subcutaneous, Experiment X) | Cmax (in vivo [5]; male, Wistar, rat, in vivo, sc, 50 nmol/kg) | EC50 [6] | intracellular cAMP concentration-increasing activity ([6]; Experiment IX, addition at 10^−9 M or 10^−8 M, HEK293 cells)
CC[C@H](C)[C@H](NC(=O)[C@H](CCC(N)=O)NC(=O)[C@H](Cc1c[nH]cn1)NC(=O)[C@H](C)NC(=O)[C@H](CC(C)C)NC(=O)[C@H](CCCCN)NC(=O)[C@H](CCC(N)=O)NC(=O)[C@@H](NC(=O)[C@@H](NC(=O)[C@@H]1CSSC[C@H](NC(=O)CNC(=O)[C@H](Cc2ccccc2)NC(=O)[C@@H](N)CO)C(=O)N[C@@H](CCCNC(=N)N)C(=O)N[C@@H](Cc2ccccc2)C(=O)NCC(=O)N[C@@H]([C@@H](C)O)C(=O)N1)[C@@H](C)O)C(C)C)C(=O)N[C@@H](Cc1ccc(O)cc1)C(=O)N[C@@H](CCC(N)=O)C(=O)N[C@@H](Cc1ccccc1)C(=O)N[C@H](C(=O)N[C@@H](CC(=O)O)C(=O)N[C@@H](CCCCN)C(=O)N[C@@H](CC(=O)O)C(=O)N[C@@H](CCCCN)C(=O)N[C@@H](CC(=O)O)C(=O)N[C@@H](CC(N)=O)C(=O)N[C@H](C(=O)N[C@@H](C)C(=O)N1CCC[C@H]1C(=O)N[C@H](CCCNC(=N)N)C(=O)N[C@@H](CO)C(=O)N[C@@H](CCCCN)C(=O)N[C@H](C(=O)N[C@@H](CO)C(=O)N1CCC[C@H]1C(=O)N[C@@H](CCC(N)=O)C(=O)NCC(=O)N[C@@H](Cc1ccc(O)cc1)C(N)=O)[C@@H](C)CC)C(C)C)[C@@H](C)O (relative stereo) [[D-Arg-44]hAM(13-52), SFGCRFGTCTVQKLAHQIYQFTDKDKDNVAP-*R-S-K-I-S-P-Q-G-Y-CONH2] | detected in rat plasma 15 minutes after administration | 0.0591 nM·h | 0.111 nM | 76.3 min | almost no decrease or only slight decrease in amount | 81.9% |  |  |  |  | 
CC[C@H](C)[C@H](NC(=O)[C@H](CCC(N)=O)NC(=O)[C@H](Cc1c[nH]cn1)NC(=O)[C@H](C)NC(=O)[C@H](CC(C)C)NC(=O)[C@H](CCCCN)NC(=O)[C@H](CCC(N)=O)NC(=O)[C@@H](NC(=O)[C@@H](NC(=O)[C@@H]1CSSC[C@H](NC(=O)CNC(=O)[C@H](Cc2ccccc2)NC(=O)[C@@H](N)CO)C(=O)N[C@@H](CCCNC(=N)N)C(=O)N[C@@H](Cc2ccccc2)C(=O)NCC(=O)N[C@@H]([C@@H](C)O)C(=O)N1)[C@@H](C)O)C(C)C)C(=O)N[C@@H](Cc1ccc(O)cc1)C(=O)N[C@@H](CCC(N)=O)C(=O)N[C@@H](Cc1ccccc1)C(=O)N[C@H](C(=O)N[C@@H](CC(=O)O)C(=O)N[C@@H](CCCCN)C(=O)N[C@@H](CC(=O)O)C(=O)N[C@@H](CCCCN)C(=O)N[C@@H](CC(=O)O)C(=O)N[C@@H](CC(N)=O)C(=O)N[C@H](C(=O)N[C@@H](C)C(=O)N1CCC[C@H]1C(=O)N[C@@H](Cc1ccccc1)C(=O)N[C@@H](CO)C(=O)N[C@@H](CCCCN)C(=O)N[C@H](C(=O)N[C@@H](CO)C(=O)N1CCC[C@H]1C(=O)N[C@@H](CCC(N)=O)C(=O)NCC(=O)N[C@@H](Cc1ccc(O)cc1)C(N)=O)[C@@H](C)CC)C(C)C)[C@@H](C)O [[Phe-44]hAM(13-52), SFGCRFGTCTVQKLAHQIYQFTDKDKDNVAPFSKISPQGY-CONH2] (H-SFGCRFGTCTVQKLAHQIYQFTDKDKDNVAPFSKISPQGY-NH2; disulfide 4-9) |  |  |  |  |  |  | stable | detected in rat plasma 15 minutes after administration | 0.323 nM | 5.13 nM | approximately equivalent to that of hAM(1-52) or hAM(13-52)
